# Test results from patent US10308689B2, “Dengue virus (DV) polypeptide sequences, T cell epitopes and methods and uses thereof” (LA JOLLA INSTITUTE FOR ALLERGY AND IMMUNOLOGY, priority 2010, dated 2019).
# System: PBMC of healthy adult blood donors from Colombo, Sri Lanka
# Assay: Ex vivo IFNγ ELISPOT, HLA-matched PBMC of Sri Lankan blood donors
# Assay type: cell-based, human
# Design: Total Response per epitope: unit not given here
# Conditions: for # donors responded: number of donors responding to the epitope; for T cell response [SFC]: ex vivo IFNγ SFC/10^6 PBMC; for # of responders: responding donors, HLA allele(s)
# [1] = IFNγ ELISPOT response summed over responding donors, per epitope
# [2] = HLA-matched PBMC, proteome-wide screen
SMILES,Total Response per epitope [1],# donors responded [2],T cell response [SFC] (per epitope),# of responders,"# donors responded (HLA allele, supertype and serotype)","Total Response per epitope (summed IFNγ ELISPOT response per epitope, HLA allele and serotype as given)"
CC(C)C[C@H](N)C(=O)N1CCC[C@H]1C(=O)N[C@@H](CCC(=O)O)C(=O)N[C@@H](CCC(=O)O)C(=O)N[C@@H](CCC(N)=O)C(=O)N[C@@H](CC(=O)O)C(=O)N[C@@H](CCC(N)=O)C(=O)N[C@@H](CC(N)=O)C(=O)N[C@@H](Cc1ccc(O)cc1)C(=O)O,1166.7,5,–,–,–,–
CC(C)C[C@H](NC(=O)[C@H](CC(C)C)NC(=O)[C@H](CC(C)C)NC(=O)[C@@H](NC(=O)[C@H](CCC(=O)O)NC(=O)[C@H](CC(C)C)NC(=O)[C@@H](NC(=O)[C@H](CCC(=O)O)NC(=O)[C@@H]1CCCN1C(=O)[C@@H](N)CC(C)C)[C@@H](C)O)[C@@H](C)O)C(=O)O,296.7,4,–,–,–,–
CSCC[C@H](NC(=O)[C@H](Cc1ccccc1)NC(=O)[C@@H](NC(=O)[C@@H]1CCCN1C(=O)[C@@H](N)CC(C)C)[C@@H](C)O)C(=O)N[C@H](C(=O)N[C@@H](CCC(N)=O)C(=O)N[C@@H](CCCCN)C(=O)N[C@@H](C)C(=O)N[C@@H](CCCNC(=N)N)C(=O)O)[C@@H](C)O,1263.3,8,–,–,–,–
CC[C@H](C)[C@H](NC(=O)[C@H](Cc1ccccc1)NC(=O)[C@H](C)NC(=O)[C@@H](N)CCSC)C(=O)N[C@@H](C)C(=O)N[C@@H](Cc1ccccc1)C(=O)N[C@@H](CC(C)C)C(=O)N[C@@H](CCCNC(=N)N)C(=O)N[C@@H](Cc1ccccc1)C(=O)O,146.7,2,–,–,–,–
CC[C@H](C)[C@H](NC(=O)[C@H](CC(N)=O)NC(=O)[C@H](C)NC(=O)[C@@H](N)CCSC)C(=O)N[C@@H](Cc1ccccc1)C(=O)N[C@@H](CCCNC(=N)N)C(=O)NCC(=O)N[C@@H](CO)C(=O)N[C@@H](Cc1ccc(O)cc1)C(=O)O,821.7,5,–,–,–,–
CC[C@H](C)[C@H](NC(=O)[C@H](CC(C)C)NC(=O)[C@H](C)NC(=O)[C@H](CC(C)C)NC(=O)[C@H](CC(C)C)NC(=O)[C@@H](N)CCSC)C(=O)N[C@@H](C)C(=O)N[C@H](C(=O)N[C@@H](CC(C)C)C(=O)O)C(C)C,81.7,1,–,–,–,–
CC[C@H](C)[C@H](NC(=O)[C@H](CC(C)C)NC(=O)[C@H](CC(C)C)NC(=O)[C@@H](N)CCSC)C(=O)N[C@@H](CC(C)C)C(=O)N[C@@H](CS)C(=O)N[C@H](C(=O)N[C@H](C(=O)N[C@@H](CCC(N)=O)C(=O)N[C@H](C(=O)O)C(C)C)[C@@H](C)O)C(C)C,43.3,1,–,–,–,–
CSCC[C@H](NC(=O)[C@H](CO)NC(=O)[C@@H]1CCCN1C(=O)[C@@H](N)CCSC)C(=O)N[C@@H](CCCCN)C(=O)N[C@@H](CCCNC(=N)N)C(=O)N[C@@H](Cc1ccccc1)C(=O)N[C@@H](CCCNC(=N)N)C(=O)N[C@@H](CCCNC(=N)N)C(=O)N[C@@H](CCC(=O)O)C(=O)O,1336.7,5,–,–,–,–
CC[C@H](C)[C@H](NC(=O)[C@@H](NC(=O)[C@H](CO)NC(=O)[C@@H]1CCCN1C(=O)[C@@H](N)CCSC)C(C)C)C(=O)N[C@@H](CCC(=O)O)C(=O)N[C@@H](CCCCN)C(=O)N[C@@H](CCSC)C(=O)N[C@@H](CCC(=O)O)C(=O)N[C@H](C(=O)O)[C@@H](C)O,783.3,2,–,–,–,–
CSCC[C@H](N)C(=O)N1CCC[C@H]1C(=O)N[C@H](C(=O)N[C@H](C(=O)N[C@@H](Cc1c[nH]cn1)C(=O)N[C@@H](CO)C(=O)N[C@@H](CO)C(=O)N[C@@H](C)C(=O)N[C@@H](C)C(=O)N[C@@H](CCC(N)=O)C(=O)O)[C@@H](C)O)C(C)C,183.3,2,–,–,–,–
CSCC[C@H](NC(=O)[C@@H](NC(=O)[C@H](CCCNC(=N)N)NC(=O)CNC(=O)[C@H](CC(C)C)NC(=O)[C@H](CC(=O)O)NC(=O)[C@H](CCCNC(=N)N)NC(=O)[C@H](Cc1ccccc1)NC(=O)[C@H](CO)NC(=O)[C@@H](N)CCSC)C(C)C)C(=O)O,3250.0,8,3250 SFC,8,–,–
CSCC[C@H](NC(=O)[C@H](CO)NC(=O)[C@H](Cc1ccc(O)cc1)NC(=O)[C@H](CO)NC(=O)[C@@H](N)CCSC)C(=O)N[C@@H](CS)C(=O)N[C@H](C(=O)NCC(=O)N[C@@H](CCCCN)C(=O)N[C@@H](Cc1ccccc1)C(=O)O)[C@@H](C)O,2553.3,6,2553 SFC,6,–,–
CSCC[C@H](NC(=O)[C@@H](NC(=O)[C@H](Cc1ccc(O)cc1)NC(=O)[C@H](CO)NC(=O)[C@@H](N)CCSC)[C@@H](C)O)C(=O)N[C@@H](CS)C(=O)N[C@@H](CO)C(=O)NCC(=O)N[C@@H](CCCCN)C(=O)O,23.3,1,–,–,–,–
CC[C@H](C)[C@H](NC(=O)[C@H](Cc1ccc(O)cc1)NC(=O)CNC(=O)[C@H](CCCNC(=N)N)NC(=O)[C@H](C)NC(=O)[C@H](C)NC(=O)[C@@H](NC(=O)[C@H](CO)NC(=O)[C@H](C)NC(=O)[C@@H]1CCCN1)[C@@H](C)CC)C(=O)O,611.7,2,–,–,–,–
C[C@H](NC(=O)[C@H](Cc1c[nH]c2ccccc12)NC(=O)[C@@H](NC(=O)[C@H](CCCNC(=N)N)NC(=O)[C@H](Cc1ccc(O)cc1)NC(=O)[C@@H]1CCCN1C(=O)[C@H](CC(N)=O)NC(=O)[C@H](CCC(=O)O)NC(=O)[C@@H](N)CCC(N)=O)[C@@H](C)O)C(=O)N[C@@H](Cc1ccc(O)cc1)C(=O)O,265.0,1,–,–,–,–
CC(C)[C@H](NC(=O)CNC(=O)[C@H](CO)NC(=O)[C@@H](N)CCC(N)=O)C(=O)N[C@@H](CC(=O)O)C(=O)N[C@H](C(=O)N[C@@H](Cc1ccccc1)C(=O)N[C@@H](Cc1ccccc1)C(=O)N[C@H](C(=O)N1CCC[C@H]1C(=O)O)[C@@H](C)O)C(C)C,103.3,1,–,–,–,–
CC(C)C[C@H](NC(=O)[C@H](CO)NC(=O)CNC(=O)[C@H](CS)NC(=O)[C@H](Cc1c[nH]c2ccccc12)NC(=O)[C@H](CCC(N)=O)NC(=O)[C@H](CC(=O)O)NC(=O)[C@H](CCC(=O)O)NC(=O)[C@@H](N)CCCNC(=N)N)C(=O)O,48.3,1,–,–,–,–
CSCC[C@H](NC(=O)[C@H](Cc1ccc(O)cc1)NC(=O)[C@@H](N)CCCNC(=N)N)C(=O)NCC(=O)N[C@@H](CCC(=O)O)C(=O)N[C@@H](CC(=O)O)C(=O)NCC(=O)N[C@@H](CS)C(=O)N[C@@H](Cc1c[nH]c2ccccc12)C(=O)N[C@@H](Cc1ccc(O)cc1)C(=O)O,66.7,1,–,–,–,–
CC[C@H](C)[C@H](NC(=O)[C@H](CCC(=O)O)NC(=O)[C@H](Cc1ccccc1)NC(=O)[C@@H]1CCCN1C(=O)[C@@H](NC(=O)[C@H](CCCCN)NC(=O)[C@H](CS)NC(=O)[C@@H]1CCCN1C(=O)[C@@H](N)CO)[C@@H](C)CC)C(=O)N[C@@H](CCSC)C(=O)O,1156.0,5,–,–,–,–
CC[C@H](C)[C@H](NC(=O)[C@@H](NC(=O)[C@@H](NC(=O)[C@H](CC(N)=O)NC(=O)[C@H](Cc1c[nH]c2ccccc12)NC(=O)[C@H](Cc1ccccc1)NC(=O)[C@H](CCCCN)NC(=O)CNC(=O)[C@@H]1CCCN1C(=O)[C@@H](N)CO)[C@@H](C)O)[C@@H](C)O)C(=O)O,826.7,3,–,–,–,–
CC[C@H](C)[C@H](NC(=O)[C@@H](NC(=O)[C@@H]1CCCN1C(=O)[C@@H](N)CO)[C@@H](C)CC)C(=O)N[C@@H](CC(N)=O)C(=O)N[C@@H](CCCNC(=N)N)C(=O)N[C@@H](CCC(=O)O)C(=O)NCC(=O)N[C@@H](CCCCN)C(=O)N[C@H](C(=O)O)C(C)C,106.7,1,–,–,–,–
CC[C@H](C)[C@H](NC(=O)[C@H](CO)NC(=O)[C@H](CC(C)C)NC(=O)[C@@H](NC(=O)[C@@H]1CCCN1C(=O)[C@@H](N)CO)[C@@H](C)CC)C(=O)N[C@H](C(=O)N[C@H](C(=O)N[C@@H](CO)C(=O)N[C@@H](CCC(=O)O)C(=O)O)[C@@H](C)CC)[C@@H](C)O,1068.3,6,–,–,–,–
C[C@H](NC(=O)[C@H](CCCNC(=N)N)NC(=O)CNC(=O)CNC(=O)[C@H](C)NC(=O)[C@H](CCC(=O)O)NC(=O)[C@H](C)NC(=O)[C@@H](N)[C@@H](C)O)C(=O)N[C@@H](Cc1ccc(O)cc1)C(=O)O,371.7,4,–,–,–,–
CC(C)C[C@H](NC(=O)[C@H](CC(C)C)NC(=O)[C@@H](NC(=O)[C@H](C)NC(=O)[C@H](C)NC(=O)[C@@H](NC(=O)[C@H](CC(C)C)NC(=O)[C@@H](N)[C@@H](C)O)[C@@H](C)O)C(C)C)C(=O)N[C@@H](CC(C)C)C(=O)N[C@H](C(=O)O)C(C)C,66.7,1,–,–,–,–
CC(C)[C@H](NC(=O)[C@H](CCCNC(=N)N)NC(=O)[C@H](CCC(N)=O)NC(=O)[C@H](CCC(N)=O)NC(=O)CNC(=O)[C@H](Cc1ccccc1)NC(=O)[C@@H]1CCCN1C(=O)[C@@H](N)[C@@H](C)O)C(=O)N[C@@H](Cc1ccccc1)C(=O)O,–,–,–,–,3,438.3
CSCC[C@H](NC(=O)[C@H](Cc1ccc(O)cc1)NC(=O)[C@@H]1CCCN1C(=O)[C@H](CC(N)=O)NC(=O)[C@H](CC(C)C)NC(=O)[C@@H](N)C(C)C)C(=O)N1CCC[C@H]1C(=O)N[C@@H](CO)C(=O)N[C@H](C(=O)O)C(C)C,41.7,1,–,–,–,–
CSCC[C@H](NC(=O)[C@H](CC(C)C)NC(=O)[C@H](CO)NC(=O)[C@H](Cc1c[nH]c2ccccc12)NC(=O)[C@H](CCSC)NC(=O)[C@H](CCC(N)=O)NC(=O)[C@H](C)NC(=O)[C@@H](N)Cc1ccc(O)cc1)C(=O)N[C@@H](Cc1ccc(O)cc1)C(=O)O,38.3,1,–,–,–,–
CSCC[C@H](NC(=O)[C@H](CCC(N)=O)NC(=O)[C@H](C)NC(=O)[C@@H](N)Cc1ccc(O)cc1)C(=O)N[C@@H](Cc1c[nH]c2ccccc12)C(=O)N[C@@H](CO)C(=O)N[C@@H](CC(C)C)C(=O)N[C@@H](CCSC)C(=O)N[C@@H](Cc1ccc(O)cc1)C(=O)N[C@@H](Cc1ccccc1)C(=O)O,33.3,1,–,–,–,–
